Measured values from patent publication US20260060991A1, “METHODS AND COMPOSITIONS FOR INHIBITING CLONAL HEMATOPOIESIS” (The Jackson Laboratory, priority 2022, published 2026).
Entries after “also recorded” stand apart in the source; their conditions may differ.

System: WT recipient mice transplanted with Dnmt3a-mutant cells (Dnmt3a;Npm1-mutant)
Test: Navitoclax treatment of mice transplanted with Dnmt3a-mutant cells, followed by tamoxifen induction of the Npm1 mutation (progression from clonal hematopoiesis to myeloid malignancy)
Type: in vivo, mouse
Procedure: FIG. 6A-6E: Navitoclax treatment attenuates Dnmt3a-mutant peripheral blood myeloid cell overproduction. (FIG. 6A) Dnmt3a-mutant cells were transplanted into wild type recipient mice, 12 weeks post-transplant Navitoclax or vehicle control was administered, and 2 weeks later the Npm1 mutation was induced in the Dnmt3a-mutant cells. (FIG. 6B) Frequency of donor-derived mature Dnmt3a;Npm1-mutant myeloid cells in peripheral blood of Navitoclax or vehicle control treated transplant mice. (FIG. 6C) Engraftment of donor-derived mature Dnmt3a;Npm1-mutant myeloid cells in BM (FIG. 6D) β-gal expression in BMSCs, and (FIG. 6E) monocyte count in navitoclax versus vehicle treated mice.
Next, the functional importance of BMSC senescence in Dnmt3a-mutant transformation to AML was evaluated. Dnmt3a-mutant cells were transplanted into WT recipient mice, administered the senolytic Navitoclax or vehicle control, and then induced the AML driver mutation Npm1^c in vivo.
Using the senolytic Navitoclax, targeting Bcl-2/Bcl-xL, we evaluated the extent to which removing senescent cells caused by Dnmt3a-mutant haematopoiesis in vivo would delay progression from clonal hematopoiesis to myeloid malignancy. Briefly, Dnmt3a-mutant cells (cells from BM derived from CD45.2^+; Dnmt3a^R787H/+ MxCre; Npm1^frt-cA/+Flpo^ERT mice) were transplanted into recipient mice (CD45.1^+ mice) (FIG. 6A). After 12 weeks (‘Pre-senolytic’), recipient mice were either administered vehicle control or the senolytic agent, navitoclax, by oral gavage to selectively deplete senescent cells. Navitoclax was administered at a dosage of 50 mg/kg/day for 1 week, followed by 2 weeks of no treatment, followed by 1 week of treatment. Blood samples were collected from Pre-senolytic mice before administration of vehicle control or navitoclax. Following navitoclax treatment (‘Post-senolytic’), the AML driver mutation Npm1^cA/+ (‘TAM’) was induced using tamoxifen to initiate progression to myeloid malignancy. Blood samples were collected from Post-senolytic mice and TAM mice. Tamoxifen was administered for a period of 1 week. Blood samples were taken from tamoxifen treated mice (“Post-Npm1”).

navitoclax
frequency of donor (CD45.2+) cells in the BM (5 months after tamoxifen treatment (harvest), relative to vehicle treated controls, FIG. 6C): lower frequency
BMSC senescence (measured by β-gal) (5 months after tamoxifen treatment (harvest), relative to vehicle treated controls, FIG. 6D): maintained lower BMSC senescence
monocyte ("white blood cell" or "WBC") count (5 months after tamoxifen treatment (harvest), relative to vehicle treated controls, FIG. 6E): reduced monocyte
frequency of myeloid cells (CD45.2+) in the peripheral blood (PB) (Post-Npm1 sampling, navitoclax 50 mg/kg/day oral gavage, 1 week on, 2 weeks off, FIG. 6B): reduced frequency
peripheral blood myeloid cell overproduction (concurrent with transformation of Dnmt3a;Npm1-mutant cells, vs vehicle control): reduced; also recorded: attenuates
